According to PMC4822341 (Cell Discovery, 2015):

Assays:
[1] = Spleen size and weight (spleen atrophy); format: in vivo, DBA/1 mice; details: 2 weeks
Method: Figure 5 Examination of side effects of VSGC12 and FF at the effective dose. (a) Body weight of DBA/1 mice treated with the indicated daily dose of steroids for 2 weeks. Mice body weight was measured at day 0, 7 and 14. (b) Insulin-tolerance test of mice treated with the indicated daily doses of steroids for 7 days. Glucose level was measured at day 7 at various time points before and after insulin injection. Data were plotted as percent of the glucose level of time 0. (c) Plasma insulin levels of mice treated with the indicated daily doses of steroid for 7 days. (d) Spleen size and weight for mice treated with the indicated daily doses of steroid for 2 weeks. (e) Cortical bone thickness of femurs of mice treated with the indicated daily doses of steroid for 2 weeks. (f) Bone stiffness of femurs of mice treated with the indicated daily doses of steroid for 2 weeks. Mouse strain: DBA/1. Each treatment n=5, error bars indicate s.e.m., *P<0.05; **P<0.01; ***P<0.001.

GR = target: T1, GR (Homo sapiens, UniProt P04150); assay: AP-1-Luc repression reporter assay in AD293 cells; format: cell-based; details: AP-1 reporter, PMA 0.6 ng ml^-1
T1 construct: expressed in transfected cells; host or cells: AD293
T1 sequence (P04150 1-777): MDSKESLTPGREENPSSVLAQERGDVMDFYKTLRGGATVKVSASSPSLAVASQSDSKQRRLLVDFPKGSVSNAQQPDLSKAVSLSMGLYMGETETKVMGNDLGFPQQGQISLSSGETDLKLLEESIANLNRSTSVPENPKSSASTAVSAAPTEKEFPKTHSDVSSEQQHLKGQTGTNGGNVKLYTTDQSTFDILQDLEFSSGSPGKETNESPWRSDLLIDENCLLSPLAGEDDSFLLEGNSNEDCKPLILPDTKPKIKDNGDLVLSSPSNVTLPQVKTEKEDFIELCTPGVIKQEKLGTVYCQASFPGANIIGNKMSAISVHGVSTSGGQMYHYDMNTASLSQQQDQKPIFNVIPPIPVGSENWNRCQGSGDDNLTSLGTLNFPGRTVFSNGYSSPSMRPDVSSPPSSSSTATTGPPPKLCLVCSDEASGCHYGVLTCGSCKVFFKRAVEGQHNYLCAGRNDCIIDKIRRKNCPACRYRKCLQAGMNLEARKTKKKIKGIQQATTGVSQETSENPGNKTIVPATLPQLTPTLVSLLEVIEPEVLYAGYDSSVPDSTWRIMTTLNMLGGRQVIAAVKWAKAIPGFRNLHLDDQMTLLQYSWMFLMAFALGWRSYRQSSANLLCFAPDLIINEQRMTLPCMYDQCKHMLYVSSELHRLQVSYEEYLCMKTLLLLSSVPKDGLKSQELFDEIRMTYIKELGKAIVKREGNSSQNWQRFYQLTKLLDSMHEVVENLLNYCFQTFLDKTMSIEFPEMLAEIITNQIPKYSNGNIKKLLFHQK
Method: Similar to previous reports, for induction 100 ng pHHLuc (MMTV-Luc) plasmid, 0.1 ng pRShGR together with 5 ng phRGtkRenilla were transfected by X-tremeGENE 9 (Roche) into AD293 cells per well in 24-well plate. For transrepression, 10 ng AP-1-Luc or 10ng pNF-κB-luc, 100 ng pRShGR and 5 ng phRGtkRenilla were transfected into AD293 cells per well. We used the same transfection protocol for the MR and PR assays, except of the use of 0.1 ng MR or PR plasmid to substitute GR. One day after transfection, for induction, cells were directly treated by steroids for 16 h; for repression, cells were treated with either PMA at 0.6 ng ml^–1 (for AP-1 reporter) or TNFα at 2 ng ml^–1 (for NF-κB reporter), together with various steroids. Cells were collected by addition of 1× Passive Lysis Buffer (Promega, Madison, WI, USA), and luciferase activity was assayed by the Dual-Glo Luciferase system (Promega). Data were plotted as firefly luciferase activity normalized to Renilla luciferase activity in Relative Luciferase Units.

CON(C)C(=O)C1(OC(=O)c2ccco2)C(C)CC2C3CC(F)C4=Cc5c(cnn5-c5ccccc5)CC4(C)C3(F)C(O)CC21C (stereo not drawn) [VSGC12]
atrophy of the spleen ([1]; 0.0625 mg kg^-1 daily): only a mild change in spleen size
atrophy of the spleen ([1]; 0.25 mg kg^-1 daily): less severe atrophy
IC50 (GR): 0.02 nM
